Data: patent publication US8871962B2, “Method for producing sanshool” (Tsumura & Co., priority 2010, dated 2014)

Experiment: Stability test of sample solutions under exposure to fluorescent light (HPLC peak area)
Assay type: physicochemical
Settings: acetonitrile sample solution (HαS 0.26 mg/mL, compound 5 0.49 mg/mL), room temperature, 24 hours under fluorescent light
Description: (HPLC Analysis Conditions)
Column: TSK-GEL 80TS (φ4.6 mm×150 mm) (Tosoh, Japan); column temperature: 40° C.; flow rate: 1.0 mL/min; measurement wavelength: 200 to 400 nm; mobile phase: Liquid A acetonitrile, Liquid B 0.1% Na2S2O3 aqueous solution (Liquid A: 40%, Liquid B: 60%); and measurement mode: isocratic mode.
HαS (27.6 mg) and the compound 5 (50.4 mg) were diluted to 100 mL with anhydrous acetonitrile (HPLC grade) to prepare 0.26 mg/mL and 0.49 mg/mL sample solutions. The sample solutions, dispensed in 50 mL aliquots, were allowed to stand at room temperature for 24 hours under exposure to fluorescent light. Quantitative analysis was performed under the above HPLC analysis conditions to measure peak area values of the HαS and the diene iron complex compound (compound 5).

Row | Compound | peak area value (content) relative to initial level after light exposure
1 | C/C=C/C=C/C=C\CC/C=C/C(=O)NCC(C)(C)O [HαS, (2E,6Z,8E,10E)-N-(2-hydroxy-2-methylpropyl)dodeca-2,6,8,10-tetraenamide] | approximately 10%
2 | tricarbonyl[(8,9,10,11-η)-(2E,6Z,8E,10E)-N-(2-hydroxy-2-methylpropyl)dodeca-2,6,8,10-tetraenamide]iron [compound 5] | approximately 80%
